How the values were obtained:
[1] = system: Candida albicans (ATCC 10231); settings: 0.3% in CSL, 30° C., reduction from 10^7, 24 h
Procedure: (§1) An EuAB test for antimicrobial activity was performed with Corynebacterium xerosis (DSM 20743), Staphylococcus epidermidis (DSM 3269) and Candida albicans (ATCC 10231). As culture medium CSL (Casein peptone-soybean meal peptone solution), CSA (Casein peptone-soybean meal pepton agar) and Sabouraud-glucose broth/agar was used.
(§2) As dilution liquid NaCl-peptone buffer solution with inactivator (3% Tween 80, 0.3% lecithin, 0.1% histidine and 0.5% Na thiosulfate) was used. Polyglyceryl-3 caprylate was tested in 0.3% (in CSL) concentration. The test solution was prepared one day before investigation. For this, 100 ml of CSL was heated to 60° C. in a water bath. 0.3 g was weighed into 100 ml of CSL at 60° C. The preparations were shaken vigorously by hand and left overnight at 30° C. in an incubator. Corynebacterium xerosis was cultivated over 3 to 4 days. Other microbes were isolated in broth or by elutriation. For each test microbe, 20 ml of each test solution were introduced into sterile 50 ml brown glass bottles with glass beads and contaminated with 0.2 ml of microbe suspension. As controls, 20 ml of CSL were carried over per test microbe without sample.
(§3) The contaminated samples were shaken for 3 min on a shaking machine and kept in an incubator at 30° C. until removed. At the removal points (1, 2, 3, 24 and 48 hours) 1 ml was taken from each preparation and transferred in each case to 9 ml of NaCl-peptone buffer solution with inactivator and the colony number was determined. The 0 hour values given were the colony numbers of the test microbe suspension used taking into consideration the 10^−2 dilution upon sample contamination.

[2] = system: Corynebacterium xerosis (DSM 20743); settings: 0.3% in CSL, 30° C., reduction from 10^7, 24 h
Procedure: as §1, §2, §3

[3] = system: Staphylococcus epidermidis (DSM 3269); settings: 0.3% in CSL, 30° C., reduction from 10^7, 24 h
Procedure: as §1, §2, §3

[4] = system: benchmark bacterial strain having an esterase activity; assay: Microbial decontamination efficiency of cleaning substances on contaminated plastic surfaces (esterase activity of swab); format: cell-based; settings: remaining esterase activity after cleaning the plastic surface with an impregnated wipe; optical density at 414 nm; not cleaned: 3.474
Procedure: For this purpose, a benchmark bacterial strain having an esterase activity (isolated by traditional microbiological methods from samples collected from human foreheads) has been used to artificially contaminated surfaces. This strain has been prepared by an overnight incubation at 37° C. in LB medium. 200 μL of this cell preparation, corresponding to 6.107 cfu have been spread on five plastic surfaces and allowed to dry completely.
Samples have then been collected onto the different plastic surfaces using swabs beforehand impregnated with PBS containing 0.1% w/v of Triton X100. 16 μL of the transformable substrate (2-hydroxy-4-p-nitrophenoxy-butyl hexanoate 20 mM in DMSO) have been mixed with 184 μL of aqueous PBS buffer 0.1M pH7.3. The swab has been plunged in this mix and incubated for 1 h at 37° C. The swab has then been removed from the reaction mixture and 100 μL have been transferred to another vial. 4 μL of bovine serum albumin 50 mg/mL in water, 40 μL NaIO4 100 mM in water and 40 μL Na2CO3 200 mM in water have been added. The reaction mixture has been incubated for 10 min at room temperature and centrifuged for 15 min at 16000 g. The activity has then been quantified by measuring optical density at 414 nm.

Row | Compound | bacteria count (colony number) after 24 h [1] | bacteria count (colony number) after 24 h [2] | bacteria count (colony number) after 24 h [3] | activity [4]
1 | polyglyceryl-3 caprylate | less than 270 | less than 270 | less than 270 | 
2 | CCO [70% ethanol, ethanol] |  |  |  | 0.195
3 | O [water] |  |  |  | 0.100
